Results published in patent publication EP0760362B1, “DIAMINOMETHYLIDENE DERIVATIVE” (NISSHIN SEIFUN GROUP INC., priority 1994, dated 1995).

System: longitudinal muscle sample (including myenteric plexus) prepared from the ileum
Experiment: Acetylcholine-release promoting action: contraction of electrically stimulated ileal longitudinal muscle in Magnus' tube
Parameters: species or system guinea pig
Conditions: increase ratio in contraction by electrical stimulation, isometrically recorded
Procedure: Acetylcholine-release promoting action of the present compounds in the gastrointestinal tract was investigated according to the following procedure. A longitudinal muscle sample (including myenteric plexus) was prepared from the ileum excised from guinea pig and suspended in Magnus' tube. This sample was perfused in a physiological salt solution and stimulated by the electric current via platinum electrodes. […] This contraction was isometrically recorded. Accordingly, the drug capable of accelerating the release of acetylcholine could enhance the contraction caused by electric stimulation only. Evaluation of the compounds was represented in terms of increase ratio in contraction by electrical stimulation. The tested compounds are shown in terms of the numbers of the corresponding Examples.

Compound	Contraction increase rate (%) (10^-5M)	Contraction increase rate (%) (10^-7M)
N#CC(C#N)=C(NCc1ccccc1)NCC1CN(Cc2ccc(F)cc2)CCO1 (centres unmarked) [Example 1, 2-Benzylamino-2-[4-(p-fluorobenzyl)-2-morpholinylmethylamino]-1,1-ethylenedicarbonitrile]	12.3	3.9
N#CC(C#N)=C(NCC1CN(Cc2ccc(F)cc2)CCO1)NC1CCCCC1 (centres unmarked) [Example 2, 2-Cyclohexylamino-2-[4-(p-fluorobenzyl)-2-morpholinylmethylamino]-1,1-ethylenedicarbonitrile]	5.3	–
CC(C)CNC(NCC1CN(Cc2ccc(F)cc2)CCO1)=C(C#N)C#N (centres unmarked) [Example 5, 2-[4-(p-Fluorobenzyl)-2-morpholinylmethylamino]-2-isobutylamino-1,1-ethylenedicarbonitrile]	4.9	–
CCOC(=O)C(C#N)=C(NCc1ccccc1)NCC1CN(Cc2ccc(F)cc2)CCO1 (centres unmarked) [Example 6, Ethyl 3-benzylamino-3-[4-(p-fluorobenzyl)-2-morpholinylmethylamino]-2-cyanoacrylate]	20.3	3.0
CCOC(=O)C(C#N)=C(NCC1CN(Cc2ccc(F)cc2)CCO1)Nc1ccccc1 (centres unmarked) [Example 7, Ethyl 3-[4-(p-fluorobenzyl)-2-morpholinylmethylamino]-3-phenylamino-2-cyanoacrylate]	–	0.7
CCOC(=O)C(C#N)=C(NCC(C)C)NCC1CN(Cc2ccc(F)cc2)CCO1 (centres unmarked) [Example 8, Ethyl 3-[4-(p-fluorobenzyl)-2-morpholinylmethylamino]-3-isobutylamino-2-cyanoacrylate]	32.4	8.5
CCOC(=O)C(C#N)=C(NCC1CN(Cc2ccc(F)cc2)CCO1)NC1CCCCC1 (centres unmarked) [Example 9, Ethyl 3-cyclohexylamino-3-[4-(p-fluorobenzyl)-2-morpholinylmethylamino]-2-cyanoacrylate]	31.9	8.7
CCOC(=O)C(C#N)=C(NCC1CN(Cc2ccc(F)cc2)CCO1)Nc1ccc(OC)cc1 (centres unmarked) [Example 10]	11.8	9.1
CCOC(=O)C(C#N)=C(NCCOCCNCc1ccc(F)cc1)NC1CCCCC1 [Example 12, Ethyl 3-cyclohexylamino-3-[7-(p-fluorophenyl)-6-aza-3-oxaheptylamino]-2-cyanoacrylate]	7.9	0.8
N#CC(C#N)=C(NCc1ccc(F)cc1)NCC1CN(Cc2ccc(F)cc2)CCO1 (centres unmarked) [Example 13, 2-(p-Fluorobenzylamino)-2-[4-(p-fluorobenzyl)-2-morpholinylmethylamino]-1,1-ethylenedicarbonitrile]	15.0	4.9
CNC(NC1CC2COCC(C1)N2Cc1ccc(F)cc1)=C(C#N)C#N (stereo not drawn) [Example 15, 2-[endo-9-(p-Fluorobenzyl)-9-aza-3-oxabicyclo[3.3.1]non-7-ylamino]-2-methylamino-1,1-ethylenedicarbonitrile]	–	3.9
CNC(NC1CC2COCC(C1)N2CCCOc1ccc(F)cc1)=C(C#N)C#N (stereo not drawn) [Example 16, 2-[endo-9-[3-(p-Fluorophenoxy)propyl]-9-aza-3-oxabicyclo-[3.3.1]non-7-ylamino]-2-methylamino-1,1-ethylenedicarbonitrile]	–	3.1
CNC(=C[N+](=O)[O-])NC1CC2COCC(C1)N2Cc1ccc(F)cc1 (stereo not drawn) [Example 17, N-[endo-9-(p-Fluorobenzyl)-9-aza-3-oxabicyclo[3.3.1]non-7-yl]-N'-methyl-2-nitrovinylidene-1,1-diamine]	5.7	3.2
CNC(=O)NCC1CN(Cc2ccc(F)cc2)CCO1 (centres unmarked) [Example 19, 1-[4-(p-Fluorobenzyl)-2-morpholinylmethyl]-3-methylurea]	–	9.8
CNC(=O)NC1CC2COCC(C1)N2Cc1ccc(F)cc1 (stereo not drawn) [Example 20, 1-[endo-9-(p-Fluorobenzyl)-9-aza-3-oxabicyclo[3.3.1]non-7-yl]-3-methylurea]	–	4.2
